37 compounds from ChEMBL document CHEMBL3734743, “Potent complement C3a receptor agonists derived from oxazole amino acids: Structure-activity relationships” (Bioorg Med Chem Lett, 2015) can be followed below.

Activity calls are given as the source filed them. No cut-off for these calls is given here.

Test [1] concerns the target T1, C3a anaphylatoxin chemotactic receptor (Homo sapiens) (UniProt Q16581).
T1 sequence (whole entry): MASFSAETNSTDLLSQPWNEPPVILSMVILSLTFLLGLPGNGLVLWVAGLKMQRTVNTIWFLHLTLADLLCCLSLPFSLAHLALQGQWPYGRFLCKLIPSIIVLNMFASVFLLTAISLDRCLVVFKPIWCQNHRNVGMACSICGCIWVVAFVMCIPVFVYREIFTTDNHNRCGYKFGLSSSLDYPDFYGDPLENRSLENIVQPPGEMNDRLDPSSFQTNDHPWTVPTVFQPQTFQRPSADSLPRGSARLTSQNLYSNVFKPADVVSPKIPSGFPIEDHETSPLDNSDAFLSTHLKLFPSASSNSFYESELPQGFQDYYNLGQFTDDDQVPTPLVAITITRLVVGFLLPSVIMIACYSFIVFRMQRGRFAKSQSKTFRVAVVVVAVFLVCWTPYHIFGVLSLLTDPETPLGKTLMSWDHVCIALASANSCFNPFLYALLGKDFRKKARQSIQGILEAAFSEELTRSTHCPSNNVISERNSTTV
Put plainly: Displacement of [125I]-C3a from C3aR in human MDM cells at 20 uM after 60 mins by microbeta scintillation counting analysis. It counts as cell-based. In general terms: Displacement assays read how much labelled ligand stays bound in the presence of the test substance.

For test [2], the target named is T2, C5a anaphylatoxin chemotactic receptor 1 (Homo sapiens) (UniProt P21730).
T2 sequence (whole entry): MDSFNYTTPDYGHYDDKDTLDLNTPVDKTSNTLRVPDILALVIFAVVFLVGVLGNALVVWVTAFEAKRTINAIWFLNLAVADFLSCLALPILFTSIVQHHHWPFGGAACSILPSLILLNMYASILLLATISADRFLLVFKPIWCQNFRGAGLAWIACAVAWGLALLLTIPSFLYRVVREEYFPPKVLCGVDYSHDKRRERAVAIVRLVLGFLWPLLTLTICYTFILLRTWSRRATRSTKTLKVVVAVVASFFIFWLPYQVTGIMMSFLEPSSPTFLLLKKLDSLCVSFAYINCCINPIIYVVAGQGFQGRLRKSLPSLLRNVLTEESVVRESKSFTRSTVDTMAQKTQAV
Put plainly: Displacement of [125I]-C5a from C5aR in human MDM cells at 20 uM after 60 mins by microbeta scintillation counting analysis. It counts as cell-based.

Test [3] addresses T1, C3a anaphylatoxin chemotactic receptor (Homo sapiens). The experiment in a line: Agonist activity at C3aR in human MDM cells assessed as inhibition of C3a-induced Ca2+ response at 10 uM measured for 60 secs by fluorescence assay relative to 100 nM C3a. In kind it is functional, cell-based.
Test [4] deals with T3, C3a anaphylatoxin chemotactic receptor (Homo sapiens, UniProt Q16581).
T3 sequence (Q16581 whole entry): T1 sequence (whole entry)
The experiment in a line: Displacement of [125I]-C3a from C3aR in human MDM cells after 60 mins by microbeta scintillation counting analysis. It counts as cell-based.

Test [5] concerns the target T1, C3a anaphylatoxin chemotactic receptor (Homo sapiens). Put plainly: Agonist activity at C3aR in human MDM cells assessed as intracellular calcium efflux at 1 uM measured for 60 secs by fluorescence based receptor desensitization assay. It counts as functional, cell-based. (A change in cytosolic calcium serves as a functional read-out for many receptors and channels.)

In the case of `Cc1oc([C@H](CC(C)C)NC(=O)S(=O)(=O)c2ccccc2)nc1C(=O)N[C@@H](CCCNC(=N)N)C(=O)O`, the inhibition in test [1] was 44%; in test [3], 103%. Moreover, the inhibition entry in test [2] was “inactive”.
For `Cc1oc([C@H](CC(C)C)NC(=O)c2cc3ccccc3o2)nc1C(=O)N[C@@H](CCCNC(=N)N)C(=O)O`, the results for the inhibition in test [1] and in test [3] were 19% and 84%, respectively. Besides, the inhibition entry in test [2] was “inactive”.
In the case of `CC[C@H](C)[C@H](NC(=O)C(c1ccccc1)c1ccccc1)c1nc(C(=O)N[C@@H](CCCNC(=N)N)C(=O)O)co1`, the inhibition entry in test [2] was “inactive”. The IC50 in test [4] worked out at 137 nM.
For `CC[C@H](C)[C@H](NC(=O)c1ccc(N(C)C)cc1)c1nc(C(=O)N[C@@H](CCCNC(=N)N)C(=O)O)co1`, the inhibition entry in test [2] is “inactive”. This compound also came in with an IC50 in test [4] of 800 nM.
`Cc1oc([C@H](CC(C)C)NC(=O)c2ccccn2)nc1C(=O)N[C@@H](CCCNC(=N)N)C(=O)O`: the inhibition was determined as 31% in test [1] and 77% in test [3]. The inhibition entry in test [2] is “inactive”.
On to `COc1ccc(OC)c(CC(=O)N[C@@H](CC(C)C)c2nc(C(=O)N[C@@H](CCCNC(=N)N)C(=O)O)c(C)o2)c1`, for which the inhibition in test [1] worked out at 42%; in test [3], 69%. Besides, the inhibition result in test [2] is “inactive”.
As to `CC[C@H](C)[C@H](NC(=O)c1cccc(OC)c1OC)c1nc(C(=O)N[C@@H](CCCNC(=N)N)C(=O)O)co1`, in test [2], the inhibition entry was “inactive”. For the same compound, the IC50 in test [4] is 710 nM.
Consider `COc1ccc(CC(=O)N[C@@H](CC(C)C)c2nc(C(=O)N[C@@H](CCCNC(=N)N)C(=O)O)c(C)o2)cc1OC`, for which the inhibition in test [1] was 65%; in test [3], 67%. In test [2], the inhibition entry was “inactive”.
For the compound `Cc1oc([C@H](CC(C)C)NC(=O)c2cc3ccccc3s2)nc1C(=O)N[C@@H](CCCNC(=N)N)C(=O)O`, the values for the inhibition in test [1] and in test [3] were 14% and 62%, respectively. For the same compound, in test [2], the inhibition result is “inactive”.
In the case of `CC[C@H](C)[C@H](NC(=O)c1ccccc1)c1nc(C(=O)N[C@@H](CCCNC(=N)N)C(=O)O)co1`, in test [2], the inhibition result is “inactive”. In test [4], this compound showed an IC50 of 27 nM.
On to `Cc1ccc(NC(=O)N[C@@H](CC(C)C)c2nc(C(=O)N[C@@H](CCCNC(=N)N)C(=O)O)c(C)o2)cc1`, for which the inhibition entry in test [1] is “inactive”. The inhibition in test [3] was 64%.
As to `Cc1oc([C@H](CC(C)C)NC(=O)c2ccc(Oc3ccccc3)cc2)nc1C(=O)N[C@@H](CCCNC(=N)N)C(=O)O`, the inhibition is 32% in test [1] and 68% in test [3]. Besides, the inhibition result in test [2] is “inactive”.
For `Cc1oc([C@H](CC(C)C)NC(=O)CCC(C)C)nc1C(=O)N[C@@H](CCCNC(=N)N)C(=O)O`, in that order: “inactive”, 95% and “inactive”.
Consider `COc1ccc(CCC(=O)N[C@@H](CC(C)C)c2nc(C(=O)N[C@@H](CCCNC(=N)N)C(=O)O)c(C)o2)cc1`, for which the inhibition in test [1] and in test [3] was 44% throughout. Besides, in test [2], the inhibition result is “inactive”.
Turning to `CC[C@H](C)[C@H](NC(=O)OC(C)(C)C)c1nc(C(=O)N[C@@H](CCCNC(=N)N)C(=O)O)co1`, the outcome in test [5] was inactive. Moreover, the inhibition result in test [2] is “inactive”.
Consider `CC[C@H](C)[C@H](NC(=O)C1CCCc2ccccc21)c1nc(C(=O)N[C@@H](CCCNC(=N)N)C(=O)O)co1` (stereo partly specified), for which the inhibition entry in test [2] is “inactive”. The compound also showed an IC50 in test [4] of 104 nM.
With `CC[C@H](C)[C@H](NC(=O)c1ccc(OC)cc1OC)c1nc(C(=O)N[C@@H](CCCNC(=N)N)C(=O)O)co1`, in test [2], the inhibition entry was “inactive”. Besides, the IC50 in test [4] is 870 nM.
As for `Cc1oc([C@H](CC(C)C)NC(=O)CC(C)(C)C)nc1C(=O)N[C@@H](CCCNC(=N)N)C(=O)O`, the inhibition in test [1] was 44%; in test [3], 70%. For the same compound, the inhibition result in test [2] is “inactive”.
With `COc1ccc(CC(=O)N[C@@H](CC(C)C)c2nc(C(=O)N[C@@H](CCCNC(=N)N)C(=O)O)c(C)o2)cc1`, the inhibition in test [1] amounted to 40%; in test [3], 26%. In addition, the inhibition result in test [2] is “inactive”.
As for `COc1cccc(CC(=O)N[C@@H](CC(C)C)c2nc(C(=O)N[C@@H](CCCNC(=N)N)C(=O)O)c(C)o2)c1`, the figures for the inhibition in test [1] and in test [3] were 41% and 87%, respectively. The inhibition entry in test [2] was “inactive”.
Turning to `CC(C)C[C@H](NC(=O)C(C)c1ccc(N2Cc3ccccc3C2=O)cc1)c1nc(C(=O)N[C@@H](CCCNC(=N)N)C(=O)O)co1` (stereo partly specified), the inhibition result in test [2] was “inactive”. Also, the IC50 in test [4] came out at 450 nM.
As to `CC[C@H](C)[C@H](NC(=O)Cc1c[nH]c2ccccc12)c1nc(C(=O)N[C@@H](CCCNC(=N)N)C(=O)O)co1`, the inhibition result in test [2] was “inactive”. Also, the IC50 in test [4] was found to be 152 nM.
For `CC(C)Cc1ccc(C(C)C(=O)N[C@@H](CC(C)C)c2nc(C(=O)N[C@@H](CCCNC(=N)N)C(=O)O)co2)cc1` (stereo partly specified), the inhibition entry in test [2] was “inactive”. This compound also registered an IC50 in test [4] of 1030 nM.
As to `Cc1oc([C@H](CC(C)C)NC(=O)CC2CCCCC2)nc1C(=O)N[C@@H](CCCNC(=N)N)C(=O)O`, the inhibition was determined as 26% in test [1] and 69% in test [3]. Also, in test [2], the inhibition result was “inactive”.
Taken in the same sequence, the figures for `Cc1oc([C@H](CC(C)C)NC(=O)C2CCCCC2)nc1C(=O)N[C@@H](CCCNC(=N)N)C(=O)O` were 39%, 107% and “inactive”.
As to `COc1cccc(C(=O)N[C@@H](CC(C)C)c2nc(C(=O)N[C@@H](CCCNC(=N)N)C(=O)O)c(C)o2)c1`, the inhibition result in test [1] and in test [2] was “inactive” throughout. Moreover, in test [3], the inhibition is 134%.
Regarding `Cc1oc([C@H](CC(C)C)NC(=O)c2ccncc2)nc1C(=O)N[C@@H](CCCNC(=N)N)C(=O)O`, the inhibition result in test [1] and in test [2] was “inactive” throughout. Besides, the inhibition in test [3] was found to be 109%.
In the case of `Cc1oc([C@H](CC(C)C)NC(=O)c2cc3ccccc3[nH]2)nc1C(=O)N[C@@H](CCCNC(=N)N)C(=O)O`, the inhibition turned out to be 26% in test [1] and 56% in test [3]. In test [2], the inhibition result was “inactive”.
As to `Cc1oc([C@H](CC(C)C)NC(=O)NCc2ccccc2)nc1C(=O)N[C@@H](CCCNC(=N)N)C(=O)O`, the figures for the inhibition in test [1] and in test [3] were 61% and 50%, respectively. The inhibition result in test [2] was “inactive”.
Consider `Cc1oc([C@H](CC(C)C)NC(=O)c2cccnc2)nc1C(=O)N[C@@H](CCCNC(=N)N)C(=O)O`, for which the inhibition in test [1] was 29%; in test [3], 68%. The inhibition result in test [2] is “inactive”.
Consider `CC[C@H](C)[C@H](NC(=O)c1ccc(C(=O)c2ccccc2)cc1)c1nc(C(=O)N[C@@H](CCCNC(=N)N)C(=O)O)co1`, for which the inhibition entry in test [2] was “inactive”. This compound returned an IC50 in test [4] of 157 nM.
As for `Cc1oc([C@H](CC(C)C)NC(=O)c2ccc(C(F)(F)F)cc2)nc1C(=O)N[C@@H](CCCNC(=N)N)C(=O)O`, the inhibition stood at 61% in test [1] and 50% in test [3]. The inhibition result in test [2] is “inactive”.
Regarding `COc1ccccc1CC(=O)N[C@@H](CC(C)C)c1nc(C(=O)N[C@@H](CCCNC(=N)N)C(=O)O)c(C)o1`, the inhibition in test [1] is 43%; in test [3] it was 81%. For the same compound, the inhibition result in test [2] was “inactive”.
For `Cc1oc([C@H](CC(C)C)NC(=O)c2cncc(Br)c2)nc1C(=O)N[C@@H](CCCNC(=N)N)C(=O)O`, the inhibition entry in test [1] and in test [2] was “inactive” each time. Further, in test [3], the inhibition was 105%.
With `CC(C)C[C@H](NC(=O)C1c2ccccc2-c2ccccc21)c1nc(C(=O)N[C@@H](CCCNC(=N)N)C(=O)O)co1`, in test [2], the inhibition result was “inactive”. In addition, the IC50 in test [4] stood at 142 nM.
On to `Cc1oc([C@H](CC(C)C)NC(=O)c2ccc(/N=N/c3ccccc3)cc2)nc1C(=O)N[C@@H](CCCNC(=N)N)C(=O)O`, for which the inhibition was determined as 49% in test [1] and 48% in test [3]. Moreover, the inhibition entry in test [2] was “inactive”.
On to `CC[C@H](C)[C@H](NC(=O)C(C)c1ccc2cc(OC)ccc2c1)c1nc(C(=O)N[C@@H](CCCNC(=N)N)C(=O)O)co1` (stereo partly specified), for which, in test [2], the inhibition result was “inactive”.

What is called inhibition is the relative decrease from the control value, in per cent. As usually defined, the IC50 is the midpoint of a concentration-inhibition curve. Low readings indicate greater potency in that assay, high ones weaker potency in that assay.
